Patent publication US20070155764A1, “NOVEL SUBSTITUTED PYRIMIDINYLOXY UREAS USEFUL AS INHIBITORS OF PROTEIN KINASES” (KALYPSYS, INC., priority 2005, published 2007)

Assays:
Assay type in all cases: biochemical
[1] = target: T1, human B-Raf protein kinase (Homo sapiens, UniProt P15056); experiment: In vitro B-Raf/Mek1 composite kinase assay; settings: recombinant GST-tagged human B-Raf (Δ1-415) with inactive Mek1, 2 μM ATP
T1 construct: GST (N); purchased Upstate Inc. 14-530 (B-Raf); 14-420 (Mek1)
Description: In Vitro B-Raf/Mek1 Composite Kinase Assay
2.5 μl of B-Raf kinase buffer (20 mM MOPS [pH 7.2], 25 mM sodium glycerophosphate, 2 mM EGTA [pH 8.0], 1 mM sodium orthovanadate, 1 mM dithiothreitol, 10 mM MgCl2, 0.03% Brij-35, 0.3 mg/ml bovine serum albumin) containing 1 ng of recombinant, N-terminal GST-tagged human B-Raf protein kinase (Δ1-415, Upstate Inc., cat. #14-530) is dispensed to wells of a 1536 multi-well white solid plate. 60 nl of 100× concentration of test compound in DMSO is dispensed to the well by passive pin transfer and incubated for 15 minutes at room temperature (approx. 22° C.). […] The assay plates are sealed and maintained in a humidified environment. After 2 hours, 2.5 μl of PKLight protein kinase assay reagent (Cambrex, cat. #LT07-501) is dispensed. After an additional 5 minute incubation at room temperature, luminescence activity is measured on a Molecular Devices Analyst multi-mode plate reader or other suitable plate reader. Kinase inhibition results in less ATP depletion, and therefore increased luminescence signal. Negative control activity is measured with DMSO lacking any test compound. The positive control is [N-(3-trifluoromethyl-4-chlorophenyl)-N′-(4-(2-methylcarbamoyl-pyridin-4-yl)oxyphenyl)urea], aka Bay 43-9006. Efficacy is measured as a percentage of positive control activity.

VEGFR2 kinase = target: T2, VEGFR2 kinase (Homo sapiens, UniProt P35968); experiment: In vitro VEGFR2 kinase assay; settings: ADP Quest assay, poly Glu:Tyr substrate, 60 μM ATP
T2 construct: purchased Invitrogen Inc PV3660
Description: (§1) In vitro vegfr2 and PDGFRβ Kinase Assays
(§2) 2.5 μl of ADP Quest assay buffer (DiscoverX Inc., cat. #90-0071) containing 20 ng VEGFR2 kinase (Invitrogen Inc, cat. #PV3660) or 25 ng PDGFRβ kinase (Invitrogen Inc., cat. #P3082) is dispensed to wells of a 1536 multi-well, black solid plate. 60 nl of 100× concentration of test compound in DMSO is dispensed to the well by passive pin transfer and incubated for 10 minutes at room temperature (approx. 22° C.). 2.5 μl of ADP Quest assay buffer containing 0.25 μg of poly Glu:Tyr (4:1) substrate peptide (Upstate Inc., cat. #12-440) and 60 μM ATP is then dispensed and the kinase reaction allowed to incubate at 30° C. for 2 hours. The assay plates are sealed and maintained in a humidified environment. After the 2 hour incubation, 2 μl of ADP Quest assay reagent A, followed by 2 μl of assay reagent B, is added. After an additional 30 minute incubation at room temperature, fluorescence intensity is measured on a Molecular Devices Aquest multi-mode plate reader or other suitable plate reader (fluorescence excitation filter: 530/25 [Peak (nm)/FWHM passband (nm)]; dichroic beamsplitter: 561 nm longpass; fluorescence emission filter: 580/10 [Peak (nm)/FWHM passband (nm)]. The assay measures the conversion of a non-fluoresecent molecule to fluorescent resorutin, which correlates with kinase activity. Negative control activity is measured with DMSO lacking any test compound. The positive control is [N-(3-trifluoromethyl-4-chlorophenyl)-N′-(4-(2-methylcarbamoyl-pyridin-4-yl)oxyphenyl)urea], aka Bay 43-9006. Efficacy is measured as a percentage of positive control activity.

PDGFRβ kinase = target: T3, PDGFRβ kinase (Homo sapiens, UniProt P09619); experiment: In vitro PDGFRβ kinase assay; settings: ADP Quest assay, poly Glu:Tyr substrate, 60 μM ATP
T3 construct: purchased Invitrogen Inc. P3082
Description: as §1, §2

T1 sequence (P15056 416-766): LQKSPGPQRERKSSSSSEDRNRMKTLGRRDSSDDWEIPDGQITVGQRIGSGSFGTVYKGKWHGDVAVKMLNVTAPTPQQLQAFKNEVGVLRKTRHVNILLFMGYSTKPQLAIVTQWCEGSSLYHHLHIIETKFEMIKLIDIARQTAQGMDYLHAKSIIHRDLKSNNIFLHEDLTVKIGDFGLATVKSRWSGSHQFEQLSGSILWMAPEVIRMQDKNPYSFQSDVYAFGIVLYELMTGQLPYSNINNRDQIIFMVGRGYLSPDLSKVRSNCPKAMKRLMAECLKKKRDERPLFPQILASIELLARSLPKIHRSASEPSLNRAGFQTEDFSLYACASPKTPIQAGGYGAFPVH
T2 sequence (P35968 20-1356): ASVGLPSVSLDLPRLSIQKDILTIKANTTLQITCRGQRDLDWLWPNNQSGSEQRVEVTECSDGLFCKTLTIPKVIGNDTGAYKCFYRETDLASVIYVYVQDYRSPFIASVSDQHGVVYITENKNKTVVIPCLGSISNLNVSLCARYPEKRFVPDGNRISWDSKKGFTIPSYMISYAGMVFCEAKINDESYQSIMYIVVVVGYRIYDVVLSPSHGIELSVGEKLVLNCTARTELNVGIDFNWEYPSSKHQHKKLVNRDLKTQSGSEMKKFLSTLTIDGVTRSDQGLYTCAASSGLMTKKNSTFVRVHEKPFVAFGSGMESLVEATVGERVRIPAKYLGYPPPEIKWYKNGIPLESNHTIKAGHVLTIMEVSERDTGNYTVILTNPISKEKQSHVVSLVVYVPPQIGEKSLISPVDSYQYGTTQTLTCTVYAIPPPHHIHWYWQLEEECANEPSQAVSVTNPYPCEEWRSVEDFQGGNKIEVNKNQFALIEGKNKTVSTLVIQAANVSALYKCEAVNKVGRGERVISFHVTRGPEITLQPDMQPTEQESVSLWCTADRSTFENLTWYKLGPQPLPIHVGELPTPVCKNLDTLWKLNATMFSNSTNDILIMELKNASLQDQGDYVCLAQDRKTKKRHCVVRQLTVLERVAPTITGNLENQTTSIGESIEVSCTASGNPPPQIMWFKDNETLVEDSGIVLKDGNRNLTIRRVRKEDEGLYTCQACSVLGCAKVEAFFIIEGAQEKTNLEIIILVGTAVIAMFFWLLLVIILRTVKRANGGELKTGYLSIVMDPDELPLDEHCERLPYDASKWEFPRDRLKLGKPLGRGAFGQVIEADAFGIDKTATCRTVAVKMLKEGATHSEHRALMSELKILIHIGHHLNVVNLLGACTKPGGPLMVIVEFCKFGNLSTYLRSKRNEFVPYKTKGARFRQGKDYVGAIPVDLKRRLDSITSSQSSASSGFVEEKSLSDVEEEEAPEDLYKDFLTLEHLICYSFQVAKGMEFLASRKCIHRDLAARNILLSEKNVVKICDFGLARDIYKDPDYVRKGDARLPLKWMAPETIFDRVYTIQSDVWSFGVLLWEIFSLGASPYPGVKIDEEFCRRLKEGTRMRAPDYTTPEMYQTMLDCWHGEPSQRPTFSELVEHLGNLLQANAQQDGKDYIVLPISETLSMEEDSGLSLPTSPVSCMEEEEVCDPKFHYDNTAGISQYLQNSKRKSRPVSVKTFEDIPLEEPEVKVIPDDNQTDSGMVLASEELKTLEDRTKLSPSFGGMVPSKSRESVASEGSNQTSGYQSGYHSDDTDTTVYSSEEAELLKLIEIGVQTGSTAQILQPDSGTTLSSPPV
T3 sequence (P09619 33-1106): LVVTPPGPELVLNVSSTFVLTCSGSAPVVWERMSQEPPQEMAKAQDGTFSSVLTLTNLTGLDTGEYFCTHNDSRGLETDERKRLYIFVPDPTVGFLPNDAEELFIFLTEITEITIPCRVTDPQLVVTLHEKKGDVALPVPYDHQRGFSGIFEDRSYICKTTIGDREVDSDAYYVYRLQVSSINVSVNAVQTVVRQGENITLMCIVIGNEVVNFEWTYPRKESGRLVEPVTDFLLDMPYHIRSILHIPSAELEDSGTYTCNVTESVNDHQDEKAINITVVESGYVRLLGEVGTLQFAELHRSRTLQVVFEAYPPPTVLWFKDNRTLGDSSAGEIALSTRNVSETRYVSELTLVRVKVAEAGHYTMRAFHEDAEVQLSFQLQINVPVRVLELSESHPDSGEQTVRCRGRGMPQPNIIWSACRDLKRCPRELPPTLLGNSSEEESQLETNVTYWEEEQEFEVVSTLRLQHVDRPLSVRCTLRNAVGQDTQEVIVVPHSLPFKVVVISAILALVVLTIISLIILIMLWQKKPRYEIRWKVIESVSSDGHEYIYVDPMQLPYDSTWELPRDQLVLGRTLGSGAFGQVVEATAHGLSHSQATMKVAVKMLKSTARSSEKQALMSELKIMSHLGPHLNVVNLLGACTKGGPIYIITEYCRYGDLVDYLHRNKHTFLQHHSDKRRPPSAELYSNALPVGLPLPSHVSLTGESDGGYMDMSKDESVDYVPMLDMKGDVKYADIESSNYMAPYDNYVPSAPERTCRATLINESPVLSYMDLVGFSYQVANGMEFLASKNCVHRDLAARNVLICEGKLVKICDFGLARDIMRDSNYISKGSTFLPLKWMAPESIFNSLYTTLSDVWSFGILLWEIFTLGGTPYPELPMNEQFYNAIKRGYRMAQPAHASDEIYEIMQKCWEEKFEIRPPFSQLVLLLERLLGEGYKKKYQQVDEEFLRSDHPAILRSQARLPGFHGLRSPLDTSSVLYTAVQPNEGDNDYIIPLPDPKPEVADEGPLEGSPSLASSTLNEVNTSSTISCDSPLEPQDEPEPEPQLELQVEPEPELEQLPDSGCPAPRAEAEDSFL

| Compound | IC50 [1] [µM] | IC50 (VEGFR2 kinase) [µM] | IC50 (PDGFRβ kinase) [µM] |
| --- | --- | --- | --- |
| CN1CCN(Cc2cc(NC(=O)Nc3cccc(Oc4cc(-c5nnco5)ncn4)c3)cc(C(F)(F)F)c2)CC1 [Example 24, 1-(3-(6-(1,3,4-Oxadiazol-2-yl)pyrimidin-4-yloxy)phenyl)-3-(3-((4-methylpiperazin-1-yl)methyl)-5-(trifluoromethyl)phenyl)urea] | ≤ 10 | ≤ 10 | ≤ 10 |
| CCN(CC)Cc1cc(NC(=O)Nc2cccc(Oc3cc(-c4nnco4)ncn3)c2)cc(C(F)(F)F)c1 [Example 25, 1-(3-(6-(1,3,4-Oxadiazol-2-yl)pyrimidin-4-yloxy)phenyl)-3-(3-((diethylamino)methyl)-5-(trifluoromethyl)phenyl)urea] | ≤ 10 | ≤ 10 | ≤ 10 |
| O=C(Nc1cccc(Oc2cc(-c3nnco3)ncn2)c1)Nc1cc(C(F)(F)F)c(Cl)cc1OCCN1CCCC1 [Example 26, 1-(3-(6-(1,3,4-Oxadiazol-2-yl)pyrimidin-4-yloxy)phenyl)-3-(4-chloro-2-(2-(pyrrolidin-1-yl)ethoxy)-5-(trifluoromethyl)phenyl)urea] | ≤ 10 | ≤ 10 | ≤ 10 |
| O=C(Nc1cccc(Oc2cc(-c3ccc[nH]3)ncn2)c1)Nc1ccc(Cl)c(C(F)(F)F)c1 [Example 27, 1-(3-(6-(1H-Pyrrol-2-yl)pyrimidin-4-yloxy)phenyl)-3-(4-chloro-3-(trifluoromethyl)phenyl)urea] | ≤ 10 | ≤ 10 | ≤ 10 |
| O=C(Nc1ccc(Oc2cc(-c3ccc[nH]3)ncn2)cc1)Nc1ccc(Cl)c(C(F)(F)F)c1 [Example 28, 1-(4-(6-(1H-Pyrrol-2-yl)pyrimidin-4-yloxy)phenyl)-3-(4-chloro-3-(trifluoromethyl)phenyl)urea] | ≤ 10 | ≤ 10 | ≤ 10 |
| Cc1nc(C)c(-c2cc(Oc3cccc(NC(=O)Nc4ccc(Cl)c(C(F)(F)F)c4)c3)ncn2)s1 [Example 29, 1-(4-Chloro-3-(trifluoromethyl)phenyl)-3-(3-(6-(2,4-dimethylthiazol-5-yl)pyrimidin-4-yloxy)phenyl)urea] | ≤ 10 | ≤ 10 | ≤ 10 |
| Cc1nc(C)c(-c2cc(Oc3ccc(NC(=O)Nc4ccc(Cl)c(C(F)(F)F)c4)cc3)ncn2)s1 [Example 30, 1-(4-Chloro-3-(trifluoromethyl)phenyl)-3-(4-(6-(2,4-dimethylthiazol-5-yl)pyrimidin-4-yloxy)phenyl)urea] | > 10 | ≤ 10 | ≤ 10 |
| O=C(Nc1ccc(Oc2cc(-c3nnco3)ncn2)cc1)Nc1cc(C(F)(F)F)c(Cl)cc1OCCN1CCCC1 [Example 31, 1-(4-(6-(1,3,4-Oxadiazol-2-yl)pyrimidin-4-yloxy)phenyl)-3-(4-chloro-2-(2-(pyrrolidin-1-yl)ethoxy)-5-(trifluoromethyl)phenyl)urea] | ≤ 10 | ≤ 10 | ≤ 10 |
| CCN(CC)CCNC(=O)c1cc(NC(=O)Nc2cccc(Oc3cc(-c4nnco4)ncn3)c2)cc(C(F)(F)F)c1 [Example 32, 3-(3-(3-(6-(1,3,4-Oxadiazol-2-yl)pyrimidin-4-yloxy)phenyl)ureido)-N-(2-(diethylamino)ethyl)-5-(trifluoromethyl)benzamide] | ≤ 10 | ≤ 10 | ≤ 10 |
| O=C(Nc1cccc(Oc2cc(-c3nnco3)ncn2)c1)Nc1cc(CN2CCOCC2)cc(C(F)(F)F)c1 [Example 33, 1-(3-(6-(1,3,4-Oxadiazol-2-yl)pyrimidin-4-yloxy)phenyl)-3-(3-(morpholinomethyl)-5-(trifluoromethyl)phenyl)urea] | ≤ 10 | ≤ 10 | ≤ 10 |
| Cn1cc(-c2cc(Oc3ccc(NC(=O)Nc4ccc(Cl)c(C(F)(F)F)c4)cc3)ncn2)cn1 [Example 35, 1-(4-Chloro-3-(trifluoromethyl)phenyl)-3-(4-(6-(1-methyl-1H-pyrazol-4-yl)pyrimidin-4-yloxy)phenyl)urea] | ≤ 10 | ≤ 10 | ≤ 10 |
| CN1CCN(Cc2cc(NC(=O)Nc3cccc(Oc4cc(-c5ncco5)ncn4)c3)cc(C(F)(F)F)c2)CC1 [Example 36, 1-(3-((4-Methylpiperazin-1-yl)methyl)-5-(trifluoromethyl)phenyl)-3-(3-(6-(oxazol-2-yl)pyrimidin-4-yloxy)phenyl)urea] | ≤ 10 | > 10 | ≤ 10 |
| O=C(Nc1cccc(Oc2ccnc(-c3nnco3)c2)c1)Nc1cc(C(F)(F)F)c(Cl)cc1OCCN1CCCC1 [Example 37, 1-(3-(2-(1,3,4-Oxadiazol-2-yl)pyridin-4-yloxy)phenyl)-3-(4-chloro-2-(2-(pyrrolidin-1-yl)ethoxy)-5-(trifluoromethyl)phenyl)urea] | ≤ 10 | ≤ 10 | ≤ 10 |
| CN1CCN(Cc2cc(NC(=O)Nc3cccc(Oc4ccnc(-c5nnco5)c4)c3)cc(C(F)(F)F)c2)CC1 [Example 38, 1-(3-(2-(1,3,4-Oxadiazol-2-yl)pyridin-4-yloxy)phenyl)-3-(3-((4-methylpiperazin-1-yl)methyl)-5-(trifluoromethyl)phenyl)urea] | ≤ 10 | ≤ 10 | ≤ 10 |
| CN1CCN(Cc2cc(NC(=O)Nc3ccc(Oc4ccnc(-c5nnco5)c4)cc3)cc(C(F)(F)F)c2)CC1 [Example 39, 1-(4-(2-(1,3,4-Oxadiazol-2-yl)pyridin-4-yloxy)phenyl)-3-(3-((4-methylpiperazin-1-yl)methyl)-5-(trifluoromethyl)phenyl)urea] | ≤ 10 | ≤ 10 | ≤ 10 |
| O=C(Nc1cccc(Oc2cc(-c3ccn[nH]3)ncn2)c1)Nc1ccc(Cl)c(C(F)(F)F)c1 [Example 40, 1-(3-(6-(1H-Pyrazol-5-yl)pyrimidin-4-yloxy)phenyl)-3-(4-chloro-3-(trifluoromethyl)phenyl)urea] | ≤ 10 | ≤ 10 | ≤ 10 |
| O=C(Nc1ccc(Oc2ccnc(-c3nnco3)c2)cc1)Nc1cc(C(F)(F)F)c(Cl)cc1OCCN1CCCC1 [Example 41, 1-(4-(2-(1,3,4-Oxadiazol-2-yl)pyridin-4-yloxy)phenyl)-3-(4-chloro-2-(2-(pyrrolidin-1-yl)ethoxy)-5-(trifluoromethyl)phenyl)urea] | ≤ 10 | ≤ 10 | ≤ 10 |
| O=C(Nc1cccc(Oc2cc(-c3ccno3)ncn2)c1)Nc1ccc(Cl)c(C(F)(F)F)c1 [Example 42, 1-(4-chloro-3-(trifluoromethyl)phenyl)-3-(3-(6-(isoxazol-5-yl)pyrimidin-4-yloxy)phenyl)urea] | ≤ 10 | ≤ 10 | ≤ 10 |
| O=C(Nc1ccc(Oc2ccnc(-c3nnco3)c2)cc1)Nc1cc(CN2CCOCC2)cc(C(F)(F)F)c1 [Example 43, 1-(4-(2-(1,3,4-Oxadiazol-2-yl)pyridin-4-yloxy)phenyl)-3-(3-(morpholinomethyl)-5-(trifluoromethyl)phenyl)urea] | ≤ 10 | ≤ 10 | ≤ 10 |
| CN1CCC(Oc2cc(Cl)c(C(F)(F)F)cc2NC(=O)Nc2ccc(Oc3ccnc(-c4nnco4)c3)cc2)CC1 [Example 44] | ≤ 10 | ≤ 10 | ≤ 10 |
